Data: ChEMBL document CHEMBL5052845 (2021)

What was measured:
Format in all cases: ADME, Microsome
[1] = Clearance in human liver microsomes at 1 uM incubated for 60 mins followed by NADPH generating system addition and measured by LC-MS/MS analysis; conditions: read-out: CLH
[2] = Half-life in mouse liver microsomes at 1 uM incubated for 60 mins followed by NADPH generating system addition and measured by LC-MS/MS analysis
[3] = Half-life in human liver microsomes at 1 uM incubated for 60 mins followed by NADPH generating system addition and measured by LC-MS/MS analysis
[4] = Clearance in mouse liver microsomes at 1 uM incubated for 60 mins followed by NADPH generating system addition and measured by LC-MS/MS analysis; conditions: read-out: CLH
[5] = Metabolic stability in mouse liver microsomes at 1 uM assessed as compound remaining incubated for 60 mins followed by NADPH generating system addition and measured by LC-MS/MS analysis; conditions: read-out: Stability

SMILES | microsomal CLint at 1 µM [1] [µL/min/mg] | half-life at 1 µM [2] [h] | half-life at 1 µM [3] [h] | microsomal CLint at 1 µM [4] [µL/min/mg] | remaining at 1 h, 1 µM [5] [%]
CCC[C@H]1C[C@@H](NC(=O)c2ccc(C(F)(F)F)[nH]c2=O)c2cc(C)ccc2N1 | 15.3 | 1.9 | 1.51 | 12.1 | 
Cc1ccc2c(c1)[C@H](O)CC[C@H]2NC(=O)c1ccc(C(F)(F)F)[nH]c1=O |  |  |  |  | 105
CCC[C@H]1Oc2ccc(C)cc2[C@@H]1NC(=O)c1ccc(C(F)(F)F)[nH]c1=O | 35.4 | 0.56 | 0.652 | 41.2 | 
CCC[C@@H]1C[C@@H](NC(=O)c2ccc(C(F)(F)F)[nH]c2=O)c2cc(C)ccc2N1 | 17 | 1.2 | 1.37 | 19.2 | 
